According to the NIST ThermoML archive (doi:10.1016/j.fluid.2013.01.003):
Numbers after ± are expanded uncertainties.

Details: 101.33 kPa, Liquid; for electrical conductivity: Alternating current cell with electrodes; for viscosity: Falling or rolling sphere viscometry; for mass density: Vibrating tube method

O=S(=O)([N-]S(=O)(=O)C(F)(F)F)C(F)(F)F.OCC[n+]1ccccc1
Details | electrical conductivity [S/m] | mass density [kg/m3] | viscosity [mPa·s]
273.15 K | 0.0435 ± 0.04 | 1614.7 ± 0.8 | 645 ± 56
278.15 K | 0.0655 ± 0.04 | 1609.2 ± 0.8 | 421.9 ± 30
283.15 K | 0.0945 ± 0.04 | 1604 ± 0.8 | 285.8 ± 17
288.15 K | 0.132 ± 0.04 | 1599.44 ± 0.78 | 200.9 ± 9.5
293.15 K | 0.178 ± 0.04 | 1594.47 ± 0.77 | 145.7 ± 5.3
298.15 K | 0.233 ± 0.04 | 1589.51 ± 0.77 | 108.7 ± 2.9
303.15 K | 0.299 ± 0.04 | 1584.59 ± 0.76 | 83.19 ± 1.5
313.15 K | 0.461 ± 0.04 | 1574.82 ± 0.75 | 52.03 ± 0.28
323.15 K | 0.668 ± 0.04 | 1565.16 ± 0.74 | 34.91 ± 0.32
333.15 K | 0.912 ± 0.04 | 1555.59 ± 0.73 | 24.77 ± 0.23
343.15 K | 1.2 ± 0.04 | 1546.08 ± 0.72 | 18.37 ± 0.17
353.15 K | 1.52 ± 0.04 | 1536.66 ± 0.71 | 14.12 ± 0.13
363.15 K | – | 1527.29 ± 0.7 | 11.18 ± 0.11
